Assay results as given in patent US20260098030A1, “NEGATIVE ALLOSTERIC MODULATORS OF METABOTROPIC GLUTAMATE RECEPTOR 2” (Vanderbilt University, priority 2022, published 2026).

Key:
human mGlu2 = target: T1, human mGlu2 (Homo sapiens, UniProt Q14416); experiment: mGlu GIRK cell-based thallium flux assay, human mGlu2; conditions: HEK-293 cells co-expressing human mGlu2 and GIRK, EC80 glutamate
T1 construct: expressed in transfected cells; host or cells: HEK-293 cells stably co-expressing GIRK channels
Experimental: Human embryonic kidney (HEK-293) cell lines stably co-expressing human or rat mGlu2 and G protein-coupled inwardly rectifying potassium (GIRK) channels, or human mGlu3 and GIRK, were used for in vitro evaluation of compound activity in thallium flux assay using a fluorescent thallium indicator dye.
The day before the assay, GIRK cells co-expressing human mGlu3, human or rat mGlu2, as described above, were plated in black-walled, clear-bottomed, amine-coated 384-well plates at a density of 15,000 cells/20 μL/well in the assay medium (glutamine-depleted basal DMEM supplemented with 10% dialyzed FBS, 20 mM HEPES, 1 mM sodium pyruvate). Cells were incubated at 37° C. in the presence of 5% CO2. The next day, assay buffer (Hanks balanced salt solution, 20 mM HEPES, 4.16 mM sodium bicarbonate, pH 7.2) was prepared to dilute compounds and Thallos AM fluorescent dye solution. The 2× Thallos dye solution (final concentration 0.34 μM to the cells) was prepared by mixing the dye stock (2.97 mM in DMSO) to 1:1 with 10% pluronic acid before adding to the assay buffer. Cells were washed with assay buffer using a microplate washer to remove the medium, resulting in 20 μL of buffer remaining in each well. Immediately, 20 μL of 2× Thallos dye solution was added to cells, and incubated for one hour at 25° C. During the cell dye loading incubation period, a 10-point concentration serial dilution of compound was created from a 10 mM DMSO compound stock by performing a 1:3 serial dilution in DMSO using the Bravo liquid handler. The 2× compound plate was generated by transferring 0.24 μL of the diluted compound in each well to a daughter plate using an Echo acoustic liquid handler. This is further diluted in 40 μL assay buffer, resulting in a range from 30 μM to 1.5 nM final concentration in the assay. The agonist plate (5×) was prepared to include EC80 glutamate concentration (a concentration to elicit 80% of a maximally effective glutamate concentration) in thallium buffer (125 mM […], 1 mM magnesium sulfate, 1.8 mM calcium sulfate, 5 mM glucose, 10 mM HEPES, pH 7.2, 12.5 mM thallium sulfate).
After dye-loading, cell plates were washed with assay buffer to remove excess extracellular dye using a microplate washer, resulting in 20 μL of buffer remaining in each well. After a ten-minute equilibration period, cell, compound and agonist plates were loaded into a Hamamatsu μCell kinetic imaging plate reader equipped with liquid handler to monitor fluorescence changes at 480 nm excitation and 540 nm emission settings. Briefly, after collection of baseline fluorescence, 20 μL of compound was added and incubated for two minutes and twenty seconds. This is immediately followed by adding 10 μL of glutamate-thallium buffer to the wells containing compound. The fluorescent signal was monitored an additional 2.5 minutes after the glutamate addition. Multiple reference wells containing no compound received either no glutamate (for a baseline reference), EC80 glutamate, or ECmax glutamate (for normalization to maximum response). Fluorescence was measured throughout the experiment at a frequency of 1 measurement per every 2 seconds before the glutamate addition and a frequency of 1 measurement per every 1 second after the glutamate addition. Each compound concentration series occurred one time in each plate, and replicates from two or three plates were used in each experimental run. Thallium solutions were handled and disposed of according to guidelines from the Vanderbilt University Chemical Safety department.
Data were normalized using a static ratio function (F/F0) by dividing every fluorescent measurement by the initial fluorescent value for the corresponding well. The increase in signal resulting from the glutamate/thallium addition of the second add was measured by determining the slope from 3 seconds to 13 seconds after the addition. […]

rat mGlu2 = target: T2, rat mGlu2 (Rattus norvegicus, UniProt P31421); experiment: mGlu GIRK cell-based thallium flux assay, rat mGlu2; conditions: HEK-293 cells co-expressing rat mGlu2 and GIRK, EC80 glutamate
T2 construct: expressed in transfected cells; host or cells: HEK-293 cells stably co-expressing GIRK channels
Summary of the method: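 HEK-293 cells stably co-expressing GIRK with human mGlu3, human mGlu2 or rat mGlu2 were loaded 1 h at 25° C with Thallos dye, then given compound (30 μM to 1.5 nM final, 10-point) for 2 min 20 s before EC80 glutamate plus thallium. Baseline-corrected fluorescence slope, normalized to ECmax glutamate, fitted to 4-parameter logistic for IC50.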

Rat mGlu3 = Rat mGlu3 (UniProt P31422); experiment: mGlu GIRK cell-based thallium flux assay, mGlu3; conditions: HEK-293 cells co-expressing mGlu3 and GIRK, EC80 glutamate

T1 sequence (Q14416 19-872): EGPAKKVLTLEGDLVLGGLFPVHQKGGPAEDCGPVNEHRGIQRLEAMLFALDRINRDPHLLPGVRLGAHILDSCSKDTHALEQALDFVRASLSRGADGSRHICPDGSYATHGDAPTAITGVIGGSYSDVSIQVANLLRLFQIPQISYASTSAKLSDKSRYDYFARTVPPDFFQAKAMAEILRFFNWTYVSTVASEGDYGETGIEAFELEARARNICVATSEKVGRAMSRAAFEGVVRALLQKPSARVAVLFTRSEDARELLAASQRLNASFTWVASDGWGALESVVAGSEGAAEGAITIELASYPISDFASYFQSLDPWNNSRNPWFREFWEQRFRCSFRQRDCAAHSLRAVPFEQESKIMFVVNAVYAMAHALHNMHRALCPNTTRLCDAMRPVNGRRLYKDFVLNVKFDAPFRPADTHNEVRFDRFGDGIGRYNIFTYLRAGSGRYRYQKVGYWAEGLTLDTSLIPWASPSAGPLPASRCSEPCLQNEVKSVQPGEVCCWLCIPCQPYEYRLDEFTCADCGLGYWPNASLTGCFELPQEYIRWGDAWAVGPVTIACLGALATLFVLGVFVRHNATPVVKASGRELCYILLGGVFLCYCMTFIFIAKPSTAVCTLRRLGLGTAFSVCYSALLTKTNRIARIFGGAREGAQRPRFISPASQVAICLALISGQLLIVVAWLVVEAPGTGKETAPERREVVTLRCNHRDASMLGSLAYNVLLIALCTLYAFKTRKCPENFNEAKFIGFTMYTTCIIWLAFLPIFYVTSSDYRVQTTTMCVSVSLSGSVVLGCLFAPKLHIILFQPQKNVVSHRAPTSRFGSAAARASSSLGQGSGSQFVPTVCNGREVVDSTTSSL
T2 sequence (P31421 19-872): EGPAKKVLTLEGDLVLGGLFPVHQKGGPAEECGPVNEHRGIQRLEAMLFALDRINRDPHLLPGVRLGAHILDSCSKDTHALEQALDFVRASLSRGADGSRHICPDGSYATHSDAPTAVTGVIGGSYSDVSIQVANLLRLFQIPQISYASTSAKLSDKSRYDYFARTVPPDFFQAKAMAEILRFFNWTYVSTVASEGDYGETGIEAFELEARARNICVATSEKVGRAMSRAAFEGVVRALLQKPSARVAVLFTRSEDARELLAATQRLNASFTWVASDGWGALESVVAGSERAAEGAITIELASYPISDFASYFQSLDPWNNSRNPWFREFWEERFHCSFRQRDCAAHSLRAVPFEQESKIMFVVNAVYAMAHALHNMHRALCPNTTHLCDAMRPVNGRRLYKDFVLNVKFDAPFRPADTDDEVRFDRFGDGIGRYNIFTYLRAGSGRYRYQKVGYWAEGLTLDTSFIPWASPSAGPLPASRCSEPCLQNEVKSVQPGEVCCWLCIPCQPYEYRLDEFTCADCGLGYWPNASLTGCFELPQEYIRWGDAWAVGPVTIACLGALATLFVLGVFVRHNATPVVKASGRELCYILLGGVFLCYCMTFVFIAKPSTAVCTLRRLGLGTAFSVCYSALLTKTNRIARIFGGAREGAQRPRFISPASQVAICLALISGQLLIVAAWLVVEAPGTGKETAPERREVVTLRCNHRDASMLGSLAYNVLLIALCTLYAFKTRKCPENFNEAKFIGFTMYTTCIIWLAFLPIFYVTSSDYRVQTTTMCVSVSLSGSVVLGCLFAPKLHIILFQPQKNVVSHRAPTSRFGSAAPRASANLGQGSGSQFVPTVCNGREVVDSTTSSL

| Structure (SMILES) | IC50 (human mGlu2) [nM] | IC50 (rat mGlu2) [nM] | IC50 (Rat mGlu3) [nM] |
| --- | --- | --- | --- |
| Cc1ncc(-c2cc3c(cc2-c2ccc(F)cc2)C(=O)NC3)s1 [Compound 5, 6-(4-fluorophenyl)-5-(2-methylthiazol-5-yl)isoindolin-1-one] | – | 839 | 5820 |
| O=C1NCc2cc(-c3ccc4ocnc4c3)c(-c3ccc(F)cc3F)cc21 [Compound 24, 5-(benzo[d]oxazol-5-yl)-6-(2,4-difluorophenyl)isoindolin-1-one] | – | 953 | > 10000 |
| Cc1ccc(-c2cc3c(cc2-c2ccc(F)cc2)C(=O)NC3)nc1 [Compound 52, 6-(4-fluorophenyl)-5-(5-methylpyridin-2-yl)isoindolin-1-one] | – | 953 | > 10000 |
| O=C1NCc2cc(C3CCOCC3)c(-c3ccc(F)cc3)cc21 [Compound 64, 6-(4-fluorophenyl)-5-(tetrahydro-2H-pyran-4-yl)isoindolin-1-one] | – | 762 | > 10000 |
| Cc1c(-c2cc3c(cc2-c2ccc(F)cc2F)C(=O)NC3)cc(C#N)n1C [Compound 90, 4-(6-(2,4-difluorophenyl)-1-oxoisoindolin-5-yl)-1,5-dimethyl-1H-pyrrole-2-carbonitrile] | 185 | 225 | – |
| COc1c(F)cc(-c2cc3c(cc2-c2cccc(C#N)c2)CNC3=O)cc1F [Compound 182, 3-(6-(3,5-difluoro-4-methoxyphenyl)-1-oxoisoindolin-5-yl)benzonitrile] | > 10000 | – | – |
| N#Cc1cccc(-c2cc3c(cc2-c2cccc(C#N)c2F)C(=O)NC3)c1 [Compound 183, 3-(6-(3-cyanophenyl)-3-oxoisoindolin-5-yl)-2-fluorobenzonitrile] | > 10000 | – | – |
| COc1ccc(-c2cc3c(cc2-c2cccc(C#N)c2)CNC3=O)c(F)c1F [Compound 184, 3-(6-(2,3-difluoro-4-methoxyphenyl)-1-oxoisoindolin-5-yl)benzonitrile] | 1130 | – | – |
| N#Cc1cccc(-c2cc3c(cc2-c2cc(F)ccc2F)C(=O)NC3)c1 [Compound 185, 3-(6-(2,5-difluorophenyl)-1-oxoisoindolin-5-yl)benzonitrile] | > 10000 | – | – |
| N#Cc1cccc(-c2cc3c(cc2-c2cc(F)ccc2C#N)C(=O)NC3)c1 [Compound 187, 2-(6-(3-cyanophenyl)-3-oxoisoindolin-5-yl)-4-fluorobenzonitrile] | 9580 | – | – |
| Cc1ccc(C#N)cc1-c1cc2c(cc1-c1cccc(C#N)c1)CNC2=O [Compound 188, 3-(6-(3-cyanophenyl)-3-oxoisoindolin-5-yl)-4-methylbenzonitrilc] | > 10000 | – | – |
| Cn1ccc(CCc2cc3c(cc2-c2ccc(F)cc2F)C(=O)NC3)n1 [Compound A1, 6-(2,4-difluorophenyl)-5-(2-(1-methyl-1H-pyrazol-3-yl)ethyl)isoindolin-1-one] | 191 | – | – |
| O=C1NCc2cc(CCc3cncnc3)c(-c3ccc(F)cc3F)cc21 [Compound A2, 6-(2,4-difluorophenyl)-5-(2-(pyrimidin-5-yl)ethyl)isoindolin-1-one] | 667 | – | – |
| N#Cc1cccc(CCc2cc3c(cc2-c2ccc(F)cc2F)C(=O)NC3)c1 [Compound A4, 3-(2-(6-(2,4-difluorophenyl)-1-oxoisoindolin-5-yl)ethyl)benzonitrile] | 481 | – | – |
| [2H]C([2H])(c1cc2c(cc1-c1ccc(F)cc1F)C(=O)NC2)C([2H])([2H])c1ccnn1C [Compound A6, 6-(2,4-difluorophenyl)-5-(2-(1-methyl-1H-pyrazol-5-yl)ethyl-1,1,2,2-d4)isoindolin-1-one] | 287 | – | – |
| Cn1nccc1CCc1cc2c(cc1-c1ccc(F)cc1F)C(=O)NC2 [Compound A7, 6-(2,4-difluorophenyl)-5-(2-(1-methyl-1H-pyrazol-5-yl)ethyl)isoindolin-1-one] | 208 | – | – |
| Cn1nc(CCc2cc3c(cc2-c2ccc(F)cc2F)C(=O)NC3)cc1C#N [Compound A9, 3-(2-(6-(2,4-difluorophenyl)-1-oxoisoindolin-5-yl)ethyl)-1-methyl-1H-pyrazole-5-carbonitrile] | 273 | – | – |
| O=C1NCc2cc(CN3CC(O)(C(F)(F)F)C3)c(-c3ccc(F)cc3F)cc21 [Compound A12, 6-(2,4-difluorophenyl)-5-((3-hydroxy-3-(trifluoromethyl)azetidin-1-yl)methyl)isoindolin-1-one] | 528 | > 10000 | – |

The next lines start with the values.

| IC50 (human mGlu2) [nM] | IC50 (rat mGlu2) [nM] | IC50 (Rat mGlu3) [nM] | Structure (SMILES) |
| --- | --- | --- | --- |
| > 10000 | > 10000 | – | Cn1cc(-c2cc3c(cc2-c2ccc(F)cc2)C(=O)NC3)cn1 [Compound 1, 6-(4-fluorophenyl)-5-(1-methyl-1H-pyrazol-4-yl)isoindolin-1-one] |
| 5840 | > 10000 | – | O=C1NCc2cc(-c3cnco3)c(-c3ccc(F)cc3)cc21 [Compound 2, 6-(4-fluorophenyl)-5-(oxazol-5-yl)isoindolin-1-one] |
| > 10000 | > 10000 | – | O=C1NCc2cc(-c3ccncc3)c(-c3ccc(F)cc3)cc21 [Compound 4, 6-(4-fluorophenyl)-5-(pyridin-4-yl)isoindolin-1-one] |
| 1560 | > 10000 | – | Cn1cc2cc(-c3cc4c(cc3-c3ccc(F)cc3)C(=O)NC4)ccc2n1 [Compound 7, 6-(4-fluorophenyl)-5-(2-methyl-2H-indazol-5-yl)isoindolin-1-one] |
| – | 1280 | 1980 | Cc1c(-c2cc3c(cc2-c2ccc(F)cc2)C(=O)NC3)ccc2[nH]ncc12 [Compound 9, 6-(4-fluorophenyl)-5-(4-methyl-1H-indazol-5-yl)isoindolin-1-one] |
| – | 659 | > 10000 | Cc1ccc(-c2cc3c(cc2-c2ccc(F)cc2F)C(=O)NC3)cn1 [Compound 69, 6-(2,4-difluorophenyl)-5-(6-methylpyridin-3-yl)isoindolin-1-one] |
| – | – | > 10000 | O=C1NCc2cc(-c3cccnc3C3CC3)c(-c3ccc(F)cc3F)cc21 [Compound 74, 5-(2-cyclopropylpyridin-3-yl)-6-(2,4-difluorophenyl)isoindolin-1-one] |
| > 10000 | – | – | COc1ccc(F)cc1-c1cc2c(cc1-c1cccc(C#N)c1)CNC2=O [Compound 186, 3-(6-(5-fluoro-2-methoxyphenyl)-1-oxoisoindolin-5-yl)benzonitrile] |
| > 10000 | – | – | N#Cc1cccc(-c2cc3c(cc2-c2cc(F)cc(C#N)c2)C(=O)NC3)c1 [Compound 189, 3-(6-(3-cyanophenyl)-3-oxoisoindolin-5-yl)-5-fluorobenzonitrile] |
| 218 | – | – | [2H]C([2H])(c1ccn(C)n1)C([2H])([2H])c1cc2c(cc1-c1ccc(F)cc1F)C(=O)NC2 [Compound A3, 6-(2,4-difluorophenyl)-5-(2-(1-methyl-1H-pyrazol-3-yl)ethyl-1,1,2,2-d4)isoindolin-1-one] |
| 205 | – | – | [2H]C1([2H])NC(=O)c2cc(-c3ccc(F)cc3F)c(C([2H])([2H])C([2H])([2H])c3ccn(C)n3)cc21 [Compound A5, 6-(2,4-difluorophenyl)-5-(2-(1-methyl-1H-pyrazol-3-yl)ethyl-1,1,2,2-d4)isoindolin-1-one-3,3-d2] |
| 413 | – | – | O=C1NCc2cc(CCc3ccn(C4CC4)n3)c(-c3ccc(F)cc3F)cc21 [Compound A8, 5-(2-(1-cyclopropyl-1H-pyrazol-3-yl)ethyl)-6-(2,4-difluorophenyl)isoindolin-1-one] |
